Test results taken from ChEMBL document CHEMBL1144712, “Structure-guided design of C2-symmetric HIV-1 protease inhibitors based on a pyrrolidine scaffold” (J Med Chem, 2008).

Biological target: Protease (Human immunodeficiency virus 1, UniProt Q9YQ12)
Test: Inhibition of HIV1 recombinant protease expressed in Escherichia coli

Sequence of Protease (Q9YQ12 whole entry): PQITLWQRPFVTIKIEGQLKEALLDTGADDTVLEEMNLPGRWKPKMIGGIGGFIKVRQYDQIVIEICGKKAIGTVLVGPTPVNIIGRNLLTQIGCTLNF

| Compound | Ki |
| --- | --- |
| O=[N+]([O-])c1ccc(S(=O)(=O)N(Cc2ccccc2)[C@H]2CNC[C@@H]2N(Cc2ccccc2)S(=O)(=O)c2ccc([N+](=O)[O-])cc2)cc1 | 1720 nM |
| Cc1ccccc1S(=O)(=O)N(Cc1ccccc1)[C@H]1CNC[C@@H]1N(Cc1ccccc1)S(=O)(=O)c1ccccc1C | 670 nM |
| O=S(=O)(c1ccccc1)N(Cc1ccc(Br)cc1)[C@H]1CNC[C@@H]1N(Cc1ccc(Br)cc1)S(=O)(=O)c1ccccc1 | 460 nM |
| C=CCN([C@H]1CNC[C@@H]1N(CC=C)S(=O)(=O)c1ccccc1)S(=O)(=O)c1ccccc1 | 12300 nM |
| C=C(C)CN([C@H]1CNC[C@@H]1N(CC(=C)C)S(=O)(=O)c1ccccc1)S(=O)(=O)c1ccccc1 | 74700 nM |
| CC(C)=CCN([C@H]1CNC[C@@H]1N(CC=C(C)C)S(=O)(=O)c1ccccc1)S(=O)(=O)c1ccccc1 | 1570 nM |
| O=S(=O)(c1ccccc1)N(Cc1ccc(C(F)(F)F)cc1)[C@H]1CNC[C@@H]1N(Cc1ccc(C(F)(F)F)cc1)S(=O)(=O)c1ccccc1 | 800 nM |
